Test results taken from article PMC4503722, “Novel Phenotypic Outcomes Identified for a Public Collection of Approved Drugs from a Publicly Accessible Panel of Assays” (PLoS ONE, 2015).

What was measured:
[1] = test system: endothelial tube formation in co-cultures of ECFCs and ADSCs treated with VEGF; assay: cells; format: cell-based, human; details: for IC50: read-out: VEGF_ADSC\ECFC Angio CD31 TubeArea summarized IC50
[2] = test system: ECFC/ADSC co-culture cell nuclei number; details: for IC50: read-out: VEGF_ADSC\ECFC Angio Hoechst NucArea summarized IC50

With `CCCOC(=O)c1cc(O)c(O)c(O)c1` [NCGC00164234-04] the IC50 [1] was > 10 µM and the IC50 [2] was > 10 µM.
In the case of `OC[C@@H](O)[C@@H](O)[C@H](O)[C@@H](O)CO` [NCGC00164353-05], the “VEGF_ADSC\ECFC Angio CD31 TubeArea IC50/EC50” value [1] is reported as > 10 µM and the “VEGF_ADSC\ECFC Angio Hoechst NucArea IC50/EC50” value [2] is reported as > 10 µM.
In the case of `COc1cc(/C=C2\CCC/C(=C\c3ccc(O)c(OC)c3)C2=O)ccc1O` [NCGC00164486-04], the IC50 [1] is reported as > 10 µM and the IC50 [2] is reported as 6.98 µM.
With `CCN(CC)C(=O)/C(C#N)=C/c1cc(O)c(O)c([N+](=O)[O-])c1` [NCGC00164555-03] the “VEGF_ADSC\ECFC Angio CD31 TubeArea IC50/EC50” value [1] was > 10 µM and the “VEGF_ADSC\ECFC Angio Hoechst NucArea IC50/EC50” value [2] was > 10 µM.
For `Cc1c(C(=O)NN2CCCCC2)nn(-c2ccc(Cl)cc2Cl)c1-c1ccc(Cl)cc1` [NCGC00164572-02], the “IC50/EC50, VEGF_ADSC\ECFC Angio CD31 TubeArea (assay number 2)” value (shortened to “IC50/EC50 … (assay number 2)”) [1] was > 10 µM and the “IC50/EC50, VEGF_ADSC\ECFC Angio Hoechst NucArea (assay number 3)” value (from here on “IC50/EC50 … (assay number 3)”) [2] was > 10 µM.
For `CCCCCCCCCCC[C@@H](C[C@@H]1OC(=O)[C@H]1CCCCCC)OC(=O)[C@H](CC(C)C)NC=O` [NCGC00165856-03], the “VEGF_ADSC\ECFC Angio CD31 TubeArea IC50/EC50” value [1] was > 10 µM and the “VEGF_ADSC\ECFC Angio Hoechst NucArea IC50/EC50” value [2] was > 10 µM.
In the case of `S=C=Nc1ccc(N=C=S)cc1` [NCGC00166077-02], the “IC50/EC50 … (assay number 2)” value [1] is reported as > 10 µM and the “IC50/EC50 … (assay number 3)” value [2] is reported as > 10 µM.
With `O=C(Nc1ccc([N+](=O)[O-])cc1)Nc1ccc([N+](=O)[O-])cc1` [NCGC00166218-02] the IC50 [1] was > 10 µM and the IC50 [2] was > 10 µM.
For `O=[N+]([O-])c1cc(I)c(O)c(I)c1` [NCGC00166241-02], the IC50 [1] was > 10 µM and the IC50 [2] was > 10 µM.
In the case of `CCCSS/C(CCO)=C(\C)N(C=O)Cc1cnc(C)nc1N` [NCGC00167447-02], the “VEGF_ADSC\ECFC Angio CD31 TubeArea IC50/EC50” value [1] is reported as > 10 µM and the “VEGF_ADSC\ECFC Angio Hoechst NucArea IC50/EC50” value [2] is reported as > 10 µM.
For `C#C[C@]1(O)CC[C@H]2[C@@H]3CCC4=CCCC[C@@H]4[C@H]3C(=C)C[C@@]21CC` [NCGC00167449-02], the “VEGF_ADSC\ECFC Angio CD31 TubeArea IC50/EC50” value [1] was > 10 µM and the “VEGF_ADSC\ECFC Angio Hoechst NucArea IC50/EC50” value [2] was 9.571 µM.
For `O=NN(CCCl)C(=O)NC1CCCCC1` [NCGC00167466-02], the “VEGF_ADSC\ECFC Angio CD31 TubeArea IC50/EC50” value [1] was > 10 µM and the “VEGF_ADSC\ECFC Angio Hoechst NucArea IC50/EC50” value [2] was > 10 µM.
In the case of `COc1cccc(CCc2ccccc2OCC(CN(C)C)OC(=O)CCC(=O)O)c1.Cl` (centres unmarked) [NCGC00167489-03], the “VEGF_ADSC\ECFC Angio CD31 TubeArea IC50/EC50” value [1] is reported as > 10 µM and the “VEGF_ADSC\ECFC Angio Hoechst NucArea IC50/EC50” value [2] is reported as > 10 µM.
With `COC(=O)C1=C(C)NC(C)=C(C(=O)OC(C)(C)CN(C)CCC(c2ccccc2)c2ccccc2)C1c1cccc([N+](=O)[O-])c1.Cl` (centres unmarked) [NCGC00167492-03] the “VEGF_ADSC\ECFC Angio CD31 TubeArea IC50/EC50” value [1] was > 10 µM and the “VEGF_ADSC\ECFC Angio Hoechst NucArea IC50/EC50” value [2] was > 10 µM.
`COC(=O)C1=C(C)NC(C)=C(C(=O)OCCN2CCN(C(c3ccccc3)c3ccccc3)CC2)C1c1cccc([N+](=O)[O-])c1` (centres unmarked) [NCGC00167493-04] was tested, and the “IC50/EC50 … (assay number 2)” value [1] was > 10 µM and the “IC50/EC50 … (assay number 3)” value [2] was > 10 µM.
`CS(=O)(=O)CCNCc1ccc(-c2ccc3ncnc(Nc4ccc(OCc5cccc(F)c5)c(Cl)c4)c3c2)o1` [NCGC00167507-04] was tested, and the “VEGF_ADSC\ECFC Angio CD31 TubeArea IC50/EC50” value [1] was > 10 µM and the “VEGF_ADSC\ECFC Angio Hoechst NucArea IC50/EC50” value [2] was > 10 µM.
`CC[C@]1(O)CC[C@H]2[C@@H]3CCC4=CCCC[C@@H]4[C@H]3CC[C@@]21C` [NCGC00167514-02] was tested, and the “VEGF_ADSC\ECFC Angio CD31 TubeArea IC50/EC50” value [1] was 6.2451 µM and the “VEGF_ADSC\ECFC Angio Hoechst NucArea IC50/EC50” value [2] was > 10 µM.
For `CCCCCCCCCCCCCCCCCCCCCC(=O)Nc1ccn([C@@H]2O[C@H](CO)[C@@H](O)[C@@H]2O)c(=O)n1` [NCGC00167515-02], the “VEGF_ADSC\ECFC Angio CD31 TubeArea IC50/EC50” value [1] was > 10 µM and the “VEGF_ADSC\ECFC Angio Hoechst NucArea IC50/EC50” value [2] was > 10 µM.
`Cc1c(C)c2c(c(C)c1OC(=O)CCC(=O)O)CC[C@@](C)(CCC[C@H](C)CCC[C@H](C)CCCC(C)C)O2` [NCGC00167561-03] was tested, and the IC50 [1] was > 10 µM and the IC50 [2] was > 10 µM.
`O=C1OC(OC(=O)c2cccnc2Nc2cccc(C(F)(F)F)c2)c2ccccc21` (centres unmarked) [NCGC00167754-02] was tested, and the “VEGF_ADSC\ECFC Angio CD31 TubeArea IC50/EC50” value [1] was > 10 µM and the “VEGF_ADSC\ECFC Angio Hoechst NucArea IC50/EC50” value [2] was > 10 µM.
With `COc1ccccc1OCCNCC(O)COc1cccc2[nH]c3ccccc3c12` (centres unmarked) [NCGC00167832-06] the “VEGF_ADSC\ECFC Angio CD31 TubeArea IC50/EC50” value [1] was > 10 µM and the “VEGF_ADSC\ECFC Angio Hoechst NucArea IC50/EC50” value [2] was > 10 µM.
`CCCCN(CCCC)CCC(O)c1cc2c(Cl)cc(Cl)cc2c2cc(C(F)(F)F)ccc12` (centres unmarked) [NCGC00179250-03] was tested, and the “VEGF_ADSC\ECFC Angio CD31 TubeArea IC50/EC50” value [1] was > 10 µM and the “VEGF_ADSC\ECFC Angio Hoechst NucArea IC50/EC50” value [2] was > 10 µM.
